# Test results: publication PMC7912881, “Polyhydroxy p-Terphenyls from a Mangrove Endophytic Fungus Aspergillus candidus LDJ-5” (Marine Drugs, 2021)
# Like-named read-outs stand apart in the source and are kept apart here.
# Tests used:
# [1] = test system: L-02, MGC-803, HCT-116, BEL-7402, A549, SH-SY5Y, Hela, U87, K562, HL-60, HO8910, and MCF-7 cell lines; assay: Cytotoxicity against the panel of cell lines (SRB or MTT method); format: cell-based, human; conditions: for IC50: Homo sapiens; for cytotoxicity effects: compared with prenylcandidusins on K562
# Protocol: (§1) All p-terphenyls (1–7) were tested for their cytotoxicity against the L-02, MGC-803, HCT-116, BEL-7402, A549, SH-SY5Y, Hela, U87, K562, HL-60, HO8910, and MCF-7 cell lines using either the SRB or the MTT method with adriamycin as positive control. […] Recently, we have also reported nine prenylated p-terphenyls from Aspergillus candidus LDJ-5 [6]. Most of the prenylated p-terphenyls were cytotoxic. Additionally, comparing to prenylcandidusin B and prenylcandidusin C, compounds 2 and 3 were distinguished by the presence of one hydroxy group and the lack of the isoprenyl group on ring C (C-3″). […] The antimicrobial activities of compounds 1–7 were evaluated in vitro against Proteus species, Pseudomonas aeruginosa, Bacillus subtilis, B. cereus, and Mycobacterium phlei. […] Asperterphenyllin A (1) was also tested for antiviral activity and protein tyrosine phosphatase 1B (PTP1B) inhibitory activity. The antiviral activity of asperterphenyllin A (1) was evaluated against the influenza A virus (H1N1) using the cytopathic effect (CPE) inhibition assay. […] Protein tyrosine phosphatase 1B (PTP1B) has been reported to be a novel drug target for diabetes and obesity. It has also been considered to be involved in tumorigenesis.
# (§2) The cytotoxicity of 1–7 and positive control was evaluated against human leukemia cell lines K562 and HL-60 (using the MTT method), human normal liver cell line L-02, human gastric cancer cell lines MGC-803, human colon cancer lines HCT-116, human hepatocacinoma cell line BEL-7402, human lung cancer cell lines A549, human neuroblastoma cell line SH-SY5Y, human cervical cancer cell lines HeLa, human glioma cell lines U87, human ovarian cancer cell lines HO-8910, and human breast cancer cell lines MCF-7 (using the SRB method). Adriamycin was used as positive control. The detailed methodologies for biological testing have been described in previous reports. All the cell lines were purchased from the Institute of Biochemistry and Cell Biology, Chinese Academy of Sciences (Shanghai, China).
# [2] = test system: Bacillus cereus; assay: Antimicrobial activity, agar dilution method; format: cell-based
# Protocol: as §1
# (§3) Antimicrobial activities were evaluated as previously reported by using the agar dilution method. The five microbial strains included Proteus sp., Pseudomonas aeruginosa, Bacillus subtilis, B. cereus, and Mycobacterium phlei. Ciprofloxacin was used as positive control. All strains were donated by the Qingdao municipal hospital.
# [3] = test system: Bacillus subtilis; assay: Antimicrobial activity, agar dilution method; format: cell-based
# Protocol: as §1, §3
# [4] = test system: Mycobacterium phlei; assay: Antimicrobial activity, agar dilution method; format: cell-based; conditions: Mycolicibacterium phlei
# Protocol: as §1, §3
# [5] = test system: Proteus species; assay: Antimicrobial activity, agar dilution method; format: cell-based
# Protocol: as §1, §3
# [6] = test system: Pseudomonas aeruginosa; assay: Antimicrobial activity, agar dilution method; format: cell-based
# Protocol: as §1, §3
# [7] = test system: influenza A virus (H1N1); assay: Anti-influenza A viral (H1N1) CPE inhibition assay; format: cell-based
# Protocol: as §1
# The antiviral activity of compound 1 against influenza A virus (H1N1) was evaluated by the CPE inhibition assay. […]
# [8] = molecular target: T1, protein tyrosine phosphatase 1B (PTP1B) (Homo sapiens, UniProt P18031); assay: PTP1B inhibitory assay (pNPP hydrolysis); format: biochemical; conditions: pNPP substrate, room temperature
# T1 sequence (P18031 1-435): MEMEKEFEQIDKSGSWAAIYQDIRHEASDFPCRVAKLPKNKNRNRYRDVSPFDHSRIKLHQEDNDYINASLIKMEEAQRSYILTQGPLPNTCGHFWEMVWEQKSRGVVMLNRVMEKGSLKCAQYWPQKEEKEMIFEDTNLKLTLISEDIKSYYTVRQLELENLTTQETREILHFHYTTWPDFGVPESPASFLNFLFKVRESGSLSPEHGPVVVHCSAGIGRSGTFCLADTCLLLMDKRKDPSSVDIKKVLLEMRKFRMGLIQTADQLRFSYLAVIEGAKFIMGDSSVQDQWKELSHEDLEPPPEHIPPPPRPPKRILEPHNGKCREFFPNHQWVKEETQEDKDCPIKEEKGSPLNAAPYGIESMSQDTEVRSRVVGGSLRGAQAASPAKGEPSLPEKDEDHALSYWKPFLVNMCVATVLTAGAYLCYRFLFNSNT
# [9] = Cytotoxicity, SRB method; format: cell-based; conditions: L-02 normal liver cells, L-02 human normal liver cell line
# Protocol: as §1, §2
# [10] = test system: A549 cell line; assay: Cytotoxicity, SRB method; format: cell-based; conditions: A549 human lung cancer cell line
# Protocol: as §1, §2
# [11] = test system: BEL-7402 cell line; assay: Cytotoxicity, SRB method; format: cell-based; conditions: BEL-7402 human hepatocarcinoma cell line
# Protocol: as §1, §2
# [12] = test system: HCT-116 cell line; assay: Cytotoxicity, SRB method; format: cell-based; conditions: HCT-116 human colon cancer cell line
# Protocol: as §1, §2
# [13] = test system: HO8910 cell line; assay: Cytotoxicity, SRB method; format: cell-based; conditions: HO-8910, HO8910 human ovarian cancer cell line
# Protocol: as §1, §2
# [14] = test system: Hela cell line; assay: Cytotoxicity, SRB method; format: cell-based; conditions: Hela human cervical cancer cell line
# Protocol: as §1, §2
# [15] = test system: MGC-803 cell line; assay: Cytotoxicity, SRB method; format: cell-based; conditions: MGC-803 human gastric cancer cell line
# Protocol: as §1, §2
# [16] = test system: SH-SY5Y cell line; assay: Cytotoxicity, SRB method; format: cell-based; conditions: SH-SY5Y human neuroblastoma cell line
# Protocol: as §1, §2
# [17] = test system: U87 cell line; assay: Cytotoxicity, SRB method; format: cell-based; conditions: U-87 MG, U87 human glioma cell line
# Protocol: as §1, §2
# [18] = test system: K562 cell lines; set-up: method as in PMID 31827255; conditions: cited from earlier work
# [19] = all twelve tested cell lines, SRB or MTT, read-out: IC50 against all tested cell lines
SMILES,"IC50 [1, 19]",MIC [2],MIC [3],MIC [4],MIC [5],MIC [6],further results
"COc1cc(-c2ccc(O)cc2)c(OC)c(OC)c1-c1ccc(O)c(O)c1 [Compound 4, Asperterphenyllin D]",> 50000 nM,70 µg/mL,> 200 µg/mL,> 200 µg/mL,> 200 µg/mL,> 200 µg/mL,
"O=C(O)c1cn(C2CC2)c2cc(N3CCNCC3)c(F)cc2c1=O [Ciprofloxacin, reference compound]",,2.07 µg/mL,4.14 µg/mL,0.52 µg/mL,0.26 µg/mL,0.52 µg/mL,
"COc1cc2oc3c(OC)c(-c4ccc(O)c(O)c4)cc(OC)c3c2cc1OC [Compound 2, Asperterphenyllin B]",> 50000 nM,> 200 µg/mL,> 200 µg/mL,79 µg/mL,> 200 µg/mL,40 µg/mL,cytotoxicity effects [1]: did not show any cytotoxicity effects
"COc1c(-c2ccc(O)c(O)c2)cc(OC)c2c1oc1c(-c3c(O)c(O)cc4c3oc3c(OC)c(-c5ccc(O)c(O)c5)cc(OC)c34)c(O)c(O)cc12 [Compound 1, Asperterphenyllin A]",> 50000 nM,> 200 µg/mL,> 200 µg/mL,> 200 µg/mL,> 200 µg/mL,> 200 µg/mL,"IC50 ([7]; H1N1, CPE inhibition assay, read-out: IC50 anti-influenza virus A (H1N1) activity): 53000 nM; IC50 [8]: 21000 nM"
"COc1cc(-c2ccc(O)c(O)c2)c(OC)c(O)c1-c1ccccc1 [Compound 6, Asperterphenyllin F]",> 50000 nM,> 200 µg/mL,> 200 µg/mL,> 200 µg/mL,> 200 µg/mL,> 200 µg/mL,
"COc1cc(-c2ccc(O)cc2)c(OC)c(O)c1-c1ccc(OC/C=C(\C)CO)c(O)c1 [Compound 7, Asperterphenyllin G]",,87 µg/mL,> 200 µg/mL,> 200 µg/mL,> 200 µg/mL,> 200 µg/mL,IC50 [9]: 1700 nM; IC50 [10]: 400 nM; IC50 [11]: 6000 nM; IC50 [12]: 800 nM; IC50 [13]: 1300 nM; IC50 [14]: 1700 nM; IC50 [15]: 1000 nM; IC50 [16]: 600 nM; IC50 [17]: 900 nM; IC50 ([1]; read-out: IC50 values against nine cell lines (range)): 400 to 1700 nM
"NC(=O)c1ncn([C@@H]2O[C@H](CO)[C@@H](O)[C@H]2O)n1 [ribavirin, reference compound]",,,,,,,"IC50 ([7]; H1N1, read-out: IC50 anti-influenza virus A (H1N1) activity): 35000 nM"
COc1cc2oc3c(OC)c(-c4ccc(O)c(CC=C(C)C)c4)cc(OC)c3c2cc1OC [Prenylcandidusin B],,,,,,,inhibitory activity against K562 cell lines [18]: moderate inhibitory activity
"COc1cc2oc3c(OC)c(-c4ccc(O)c(O)c4)cc(OC)c3c2cc1O [Compound 3, Asperterphenyllin C]",> 50000 nM,> 200 µg/mL,38 µg/mL,38 µg/mL,19 µg/mL,> 200 µg/mL,cytotoxicity effects [1]: did not show any cytotoxicity effects
"COc1cc(-c2c(OC)cc(-c3ccccc3)c(OC)c2O)ccc1O [Compound 5, Asperterphenyllin E]",> 50000 nM,70 µg/mL,70 µg/mL,70 µg/mL,35 µg/mL,70 µg/mL,
COc1cc2oc3c(OC)c(-c4ccc(O)c(CC=C(C)C)c4)cc(OC)c3c2cc1O [prenylcandidusin C],,,,,,,inhibitory activity against K562 cell lines [18]: moderate inhibitory activity
